From US6812245B2, “Polycylic xanthones and their use” (Instituto Biomar S.A., priority 2000, dated 2004)

Experiments:
Assay type in all cases: cell-based
[1] = system: mouse leukaemia P-388; assay: in vitro antitumour activity in cell cultures, mouse leukaemia P-388; conditions: P388; mouse leukaemia P-388 cell culture
Method: (§1) The antitumour activities of IB-00208 have been determined in vitro in cell cultures of mouse leukaemia P-388, human lung carcinoma A-549, human colon carcinoma HT-29 and human melanoma MEL-28. The procedure was carried out using the methodology described by Bergeron et al. The IC50 found was of 0.001, 0.001, 0.001, and 0.001 μg/ml for all 4 cell lines.

[2] = system: human lung carcinoma A-549; assay: in vitro antitumour activity in cell cultures, human lung carcinoma A-549; conditions: A549; human lung carcinoma A-549 cell culture
Method: as §1

[3] = system: human colon carcinoma HT-29; assay: in vitro antitumour activity in cell cultures, human colon carcinoma HT-29; conditions: human colon carcinoma HT-29 cell culture
Method: as §1

[4] = system: human melanoma MEL-28; assay: in vitro antitumour activity in cell cultures, human melanoma MEL-28; conditions: SK-MEL-28; human melanoma MEL-28 cell culture
Method: as §1

Measured: IC50

COc1ccc(OC)c2c(=O)c3c(oc12)C(=O)c1ccc2c(OC4OC(C)C(OC)C(OC)C4OC)c4c(c(O)c2c1C3=O)C(=O)OC(C)C4 (stereo not shown) [IB-00208]
1 ng/mL: all assays above
